Target: T1, human TLR8 (Homo sapiens, UniProt Q9NR97)
T1 construct: host or cells: HEK293 (HEK-Blue hTLR8)
T1 sequence (Q9NR97 27-1041): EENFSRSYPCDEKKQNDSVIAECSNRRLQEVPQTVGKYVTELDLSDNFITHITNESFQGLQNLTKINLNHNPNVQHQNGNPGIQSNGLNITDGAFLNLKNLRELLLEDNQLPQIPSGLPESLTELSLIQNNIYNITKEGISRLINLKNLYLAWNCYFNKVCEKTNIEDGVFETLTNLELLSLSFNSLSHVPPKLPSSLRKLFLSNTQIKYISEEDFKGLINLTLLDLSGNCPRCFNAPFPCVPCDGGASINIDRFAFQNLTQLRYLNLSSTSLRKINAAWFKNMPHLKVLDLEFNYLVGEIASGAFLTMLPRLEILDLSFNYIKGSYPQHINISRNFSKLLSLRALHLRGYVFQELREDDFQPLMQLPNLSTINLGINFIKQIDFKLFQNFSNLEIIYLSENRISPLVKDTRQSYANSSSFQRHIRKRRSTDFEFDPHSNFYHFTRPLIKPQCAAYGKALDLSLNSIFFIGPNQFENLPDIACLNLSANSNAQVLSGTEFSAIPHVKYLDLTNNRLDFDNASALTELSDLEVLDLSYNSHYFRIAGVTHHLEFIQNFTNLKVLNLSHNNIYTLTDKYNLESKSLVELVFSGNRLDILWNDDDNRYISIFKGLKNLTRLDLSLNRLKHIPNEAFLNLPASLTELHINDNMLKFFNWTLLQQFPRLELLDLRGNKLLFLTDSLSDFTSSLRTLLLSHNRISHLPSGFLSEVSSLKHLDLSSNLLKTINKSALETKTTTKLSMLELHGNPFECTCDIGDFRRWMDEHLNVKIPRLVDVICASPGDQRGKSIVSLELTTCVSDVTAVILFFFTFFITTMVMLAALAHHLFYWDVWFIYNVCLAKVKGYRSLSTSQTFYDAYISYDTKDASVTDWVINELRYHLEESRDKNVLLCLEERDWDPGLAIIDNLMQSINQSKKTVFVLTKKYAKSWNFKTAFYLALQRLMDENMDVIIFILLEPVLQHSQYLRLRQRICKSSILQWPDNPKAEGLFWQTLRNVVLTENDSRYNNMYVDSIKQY
Assay: HEK293-Blue-hTLR-8 cells assay (SEAP reporter, R848 stimulation)
Assay type: cell-based
Conditions: HEK293-Blue-hTLR8 cells, R848, 20 hrs; read-out: HEK/hTLR8 IC50
Experimental: The following tests were carried out in order to determine the activity of the compounds of formula (I) and (Ia) in HEK293-Blue-hTLR-7/8/9 cells assay.
A stable HEK293-Blue-hTLR-8 cell line was purchased from InvivoGen (Cat. #: hkb-htlr8, San Diego, California, USA). These cells were originally designed for studying the stimulation of human TLR8 by monitoring the activation of NF-κB. A SEAP (secreted embryonic alkaline phosphatase) reporter gene was placed under the control of the IFN-β minimal promoter fused to five NF-κB and AP-1-binding sites. The SEAP was induced by activating NF-κB and AP-1 via stimulating HEK-Blue hTLR8 cells with TLR8 ligands. Therefore the reporter expression was declined by TLR8 antagonist under the stimulation of a ligand, such as R848, for incubation of 20 hrs. The cell culture supernatant SEAP reporter activity was determined using QUANTI-Blue™ kit (Cat. #: rep-qb1, Invivogen, San Diego, Ca, USA) at a wavelength of 640 nm, a detection medium that turns purple or blue in the presence of alkaline phosphatase.
HEK293-Blue-hTLR8 cells were incubated at a density of 250,000˜450,000 cells/mL in a volume of 170 μL in a 96-well plate in Dulbecco's Modified Eagle's medium (DMEM) containing 4.5 g/L glucose, […] penicillin, […], […] Normocin, 2 mM L-glutamine, 10% (v/v) heat-inactivated fetal bovine serum with addition of 20 μL test compound in a serial dilution in the presence of final DMSO at 1% and 10 μL of 60 uM R848 in above DMEM, perform incubation under 37° C. in a C02 incubator for 20 hrs. Then 20 μL of the supernatant from each well was incubated with 180 μL Quanti-blue substrate solution at 37° C. for 2 hrs and the absorbance was read at 620-655 nm using a spectrophotometer. The signaling pathway that TLR8 activation leads to downstream NF-κB activation has been widely accepted, and therefore similar reporter assay was modified for evaluating TLR8 antagonist.

IC50	Compound
11 nM	C[C@H]1CN(c2ccnc3c2cnn3C)Cc2ccc(N3CC4CNC[C@H]4C3=O)cc21 (relative stereo) [Example 17, cis-5-[(4R)-4-methyl-2-(1-methylpyrazolo[3,4-b]pyridin-4-yl)-3,4-dihydro-1H-isoquinolin-6-yl]-1,2,3,3a,6,6a-hexahydropyrrolo[3,4-c]pyrrol-4-one]
5 nM	C[C@H]1CN(c2ccnc3c2cnn3C)Cc2ccc(N3C[C@]4(CCNC4)CC3=O)cc21 (single isomer, unassigned) [Example 54]
24 nM	C[C@H]1CN(c2ccnc3c2cnn3C)Cc2ccc(N3C[C@@H]4CCNC[C@@H]4C3=O)cc21 (single isomer, unassigned) [Example 57]
8 nM	C[C@H]1CN(c2ccnc3c2cnn3C)Cc2ccc(N3CCN(C(=O)C4CNCCO4)CC3)cc21 (stereo partly drawn) [Example 12, morpholin-2-yl-[4-[(4R)-4-methyl-2-(1-methylpyrazolo[3,4-b]pyridin-4-yl)-3,4-dihydro-1H-isoquinolin-6-yl]piperazin-1-yl]methanone]
2 nM	C[C@H]1CN(c2ccnc3c2cnn3C)Cc2ccc(N3C[C@H]4CNCCN4C3=O)cc21 [Example 24, (8aR)-2-[(4R)-4-methyl-2-(1-methylpyrazolo[3,4-b]pyridin-4-yl)-3,4-dihydro-1H-isoquinolin-6-yl]-1,5,6,7,8,8a-hexahydroimidazo[1,5-a]pyrazin-3-one]
2 nM	Cc1cc(N2Cc3ccc(OC[C@H]4CNCCN4)cc3[C@@H](C)C2)c2cnn(C)c2n1 [Example 30, (4R)-2-(1,6-dimethylpyrazolo[3,4-b]pyridin-4-yl)-4-methyl-6-[[(2R)-piperazin-2-yl]methoxy]-3,4-dihydro-1H-isoquinoline]
15 nM	C[C@H]1CN(c2ccnc3c2cnn3C)Cc2ccc(N3CCN(S(=O)(=O)C4CCNC4)CC3)cc21 (stereo partly drawn) [Example 33, (4R)-4-methyl-2-(1-methylpyrazolo[3,4-b]pyridin-4-yl)-6-(4-pyrrolidin-3-ylsulfonylpiperazin-1-yl)-3,4-dihydro-1H-isoquinoline]
0.5 nM	Cc1cc(N2Cc3ccc(N4CCC(O)(CN(C)C)CC4)nc3[C@@H](C)C2)c2cnn(C)c2n1 [Example 61, 4-[(dimethylamino)methyl]-1-[(8S)-6-(1,6-dimethylpyrazolo[3,4-b]pyridin-4-yl)-8-methyl-7,8-dihydro-5H-1,6-naphthyridin-2-yl]piperidin-4-ol]
1 nM	CO[C@H]1CN(c2ccc3c(n2)[C@@H](C)CN(c2cc(C)nc4c2cnn4C)C3)CC[C@@H]1N [Example 65, (3S,4S)-3-methoxy-1-[(8S)-6-(1,6-dimethylpyrazolo[3,4-b]pyridin-4-yl)-8-methyl-7,8-dihydro-5H-1,6-naphthyridin-2-yl]piperidin-4-amine]
8 nM	COC[C@H]1CN(c2cc3c(cn2)CN(c2cc(C)nc4c2cnn4C)C[C@@H]3C)CCN1 [Example 81, (4R)-2-(1,6-dimethylpyrazolo[3,4-b]pyridin-4-yl)-4-methyl-6-[(3R)-3-(methoxymethyl)piperazin-1-yl]-3,4-dihydro-1H-2,7-naphthyridine]

More lines, now with the values behind:

Compound	IC50
C[C@H]1CN(c2ccnc3c2cnn3C)Cc2ccc(N3C[C@H]4CCNC[C@H]4C3=O)cc21 (single isomer, unassigned) [Example 56]	7 nM
CC1CN(c2ccnc3c2cnn3C)Cc2ccc(N3CCC4(CCNCC4)CC3)cc21 (stereo not drawn) [Example 4, 3-[4-methyl-2-(1-methylpyrazolo[3,4-b]pyridin-4-yl)-3,4-dihydro-1H-isoquinolin-6-yl]-3,9-diazaspiro[5.5]undecane]	7 nM
Cc1cc(N2Cc3ccc(N4CCC5(CCNCC5)CC4)cc3C(C)C2)c2cnn(C)c2n1 (stereo not drawn) [Example 5, 3-[2-(1,6-dimethylpyrazolo[3,4-b]pyridin-4-yl)-4-methyl-3,4-dihydro-1H-isoquinolin-6-yl]-3,9-diazaspiro[5.5]undecane]	10 nM
Cn1ncc2c(N3Cc4ccc(N5CCC6(CCNCC6)CC5)cc4C(C)(C)C3)ccnc21 [Example 6, 3-[4,4-dimethyl-2-(1-methylpyrazolo[3,4-b]pyridin-4-yl)-1,3-dihydroisoquinolin-6-yl]-3,9-diazaspiro[5.5]undecane]	18 nM
C[C@H]1CN(c2ccnc3c2cnn3C)Cc2ccc(N3CCC(N4CCNCC4)CC3)cc21 [Example 10, (4R)-4-methyl-2-(1-methylpyrazolo[3,4-b]pyridin-4-yl)-6-(4-piperazin-1-yl-1-piperidyl)-3,4-dihydro-1H-isoquinoline]	1 nM
CO[C@@H]1CN(C2CCN(c3ccc4c(c3)[C@@H](C)CN(c3ccnc5c3cnn5C)C4)CC2)C[C@H]1N [Example 11, (3R,4R)-4-methoxy-1-[1-[(4R)-4-methyl-2-(1-methylpyrazolo[3,4-b]pyridin-4-yl)-3,4-dihydro-1H-isoquinolin-6-yl]-4-piperidyl]pyrrolidin-3-amine]	< 0.3 nM
C[C@H]1CN(c2ccnc3c2cnn3C)Cc2ccc(N3C[C@@H]4CNCCN4C3=O)cc21 [Example 25, (8aS)-2-[(4R)-4-methyl-2-(1-methylpyrazolo[3,4-b]pyridin-4-yl)-3,4-dihydro-1H-isoquinolin-6-yl]-1,5,6,7,8,8a-hexahydroimidazo[1,5-a]pyrazin-3-one]	< 0.3 nM
C[C@H]1CN(c2ccnc3c2cnn3C)Cc2ccc(OC[C@@H]3CNCCN3C)cc21 [Example 44, (4R)-4-methyl-2-(1-methylpyrazolo[3,4-b]pyridin-4-yl)-6-[[(2S)-1-methylpiperazin-2-yl]methoxy]-3,4-dihydro-1H-isoquinoline]	5 nM
C[C@H]1CN(c2ccnc3c2cnn3C)Cc2ccc(N3CCNC(CO)C3)cc21 (stereo partly drawn) [Example 49, [4-[(4R)-4-methyl-2-(1-methylpyrazolo[3,4-b]pyridin-4-yl)-3,4-dihydro-1H-isoquinolin-6-yl]piperazin-2-yl]methanol]	2 nM
Cc1cc(N2Cc3ccc(N4CCC(N(C)C)CC4)nc3[C@@H](C)C2)c2cnn(C)c2n1 [Example 60, N,N-dimethyl-1-[(8S)-6-(1,6-dimethylpyrazolo[3,4-b]pyridin-4-yl)-8-methyl-7,8-dihydro-5H-1,6-naphthyridin-2-yl]piperidin-4-amine]	0.5 nM
Cc1cc(N2Cc3cnc(N4CCNC5(CC5)C4)cc3[C@@H](C)C2)c2cnn(C)c2n1 [Example 75, (4R)-6-(4,7-diazaspiro[2.5]octan-7-yl)-2-(1,6-dimethylpyrazolo[3,4-b]pyridin-4-yl)-4-methyl-3,4-dihydro-1H-2,7-naphthyridine]	13 nM

— US20240317735A1, “HYDROISOQUINOLINE OR HYDRONAPHTHYRIDINE COMPOUNDS FOR THE TREATMENT OF AUTOIMMUNE DISEASE” (Hoffmann-La Roche Inc., priority 2020, published 2024)
